Measured values published in patent US6790829B1, “Cyclic decapeptide antibiotics” (priority 1998, dated 2004).
≈ marks a conversion by molar mass, not a printed value. Where a SMILES comes first, the peptide text is derived from it. [ ]: non-standard residue; d: D form. Orn = NCCC[C@H](N)C(=O)O

What was measured:
[1] = Microtiter plate assay of HPLC fractions to identify active materials; type: cell-based; details: reverse phase HPLC fractions of Method C cyclization mixture
Source text: (§1) The complex reaction mixture from Method C was chromatographed on reverse phase HPLC, and a microtiter plate assay was run throughout the entire chromatogram to identify active materials.

S. aureus (MRSA) = type: cell-based, Staphylococcus aureus
Experimental: (§2) Antimicrobial activity was determined by macrobroth dilution antimicrobial susceptibility testing. Solutions of the cyclic decapeptides (Loloatin A, B and C) and a control (vancomycin) were prepared in tryptic soy broth. Initially, a 100 μg/ml solution of each compound was tested. When inhibition of target microorganism was detected, serial two-fold dilutions of the compound in broth were tested to determine the minimal inhibitory concentration (MIC) of each compound for each target organisms. Target organisms tested are listed below in Table 3, and included methicillin resistant Staphylococcus aureus, vancomycin resistant Enterococcus sp. Escherichia coli, multiply drug resistant Pseudomonas aeruginosa; Stenofrophomonas maltophilia and Candida albicans. Turbidity standardized suspensions of each organism were prepared according to accepted protocols using a 0.5 McFarland turbidity standard, and these standardized suspensions were used to inoculate the tubes containing the compounds. Activity of a compound was indicated by lack of growth (turbidity) of one or more of the target organisms. See Woods, G. L. and Washington, J. A., “Antibacterial susceptibility tests: dilution and disk diffusion methods, Manual of Clinical Microbiology (6th Ed.), Murray, Baron, Pfaller, Tenover and Yolken Eds.), ASM Press, Washington D.C., 1995, pp. 1327-1341. Other compounds of the invention may be screened and evaluated for antibiotic activity in the same manner.

MRSA 034 = experiment: In-vitro Microbiology of Fraction 73 (MIC/MBZ); type: cell-based, Staphylococcus aureus
Source text: as §1

[2] = test system: Stenotrophomonas maltophilia; type: cell-based
Experimental: as §2

[3] = test system: Group A Streptococcus (19615); type: cell-based
Experimental: as §2

Escherichia coli [4] = type: cell-based
Experimental: as §2

Candida albicans [5] = type: cell-based
Experimental: as §2

[6] = test system: Group B Streptococcus (12401); type: cell-based
Experimental: as §2

Enterobacter cloacae [7] = type: cell-based
Experimental: as §2

P.a. 028 = experiment: In-vitro Microbiology of Fraction 73 (MIC/MBZ); type: cell-based, Pseudomonas aeruginosa
Source text: as §1

[8] = test system: Methicillin resistant Staphylococcus aureus; type: cell-based
Experimental: (§3) Antimicrobial activity was determined by macrobroth dilution antimicrobial susceptibility testing. A solution of Loloatin B was prepared in tryptic soy broth. Initially, a […] solution of the peptide was tested. If inhibition of a target microorganism was detected, serial two-fold dilutions (in broth) of the Loloatin B solutions were tested to determine the minimal inhibitory concentration (MIC) of Loloatin B for each target organism Target organisms tested are identified in Table 2. Turbidity standardized suspensions of each organism were prepared according to accepted protocols using a 0.5 McFarland turbidity standard, and these standardized suspensions were used to inoculate a tube containing Loloatin B. Activity of Loloatin B was indicated by lack of growth (turbidity) of one or more of the target organisms.
(§4) See Woods, G. L. et al., “Antibacterial susceptibility tests: dilution and disk diffusion methods, Manual of Clinical Microbiology (6^thEd.), Murray, Baron, Pfaller, Tenover and Yolken (Eds.), ASM Press, Washington D.C., 1995, pp. 1327-1341.

[9] = test system: Penicillin resistant Streptococcus pneumoniae; type: cell-based
Experimental: as §3, §4

Escherichia coli [10] = type: cell-based; remark: listed apart in the source
Experimental: as §3, §4

[11] = test system: Vancomycin resistant Enterococcus faecalis; type: cell-based
Experimental: as §3, §4

Candida albicans [12] = type: cell-based; remark: listed apart in the source
Experimental: as §3, §4

Xanthomonas maltophilia = type: cell-based
Experimental: as §3, §4

Pseudomonas aeruginosa [13] = type: cell-based
Experimental: as §3, §4

Enterobacter cloacae [14] = type: cell-based; remark: listed apart in the source
Experimental: as §3, §4

[15] = test system: Enterococcus faecalis (13242); experiment: microbe, parasite or virus in culture; type: cell-based; details: for BROTH DILUTION MIC: 13242
Experimental: as §2

[16] = test system: Enterococcus faecium (19007); experiment: microbe, parasite or virus in culture; type: cell-based; details: for BROTH DILUTION MIC: 19007
Experimental: as §2

Enterococcus gallinarum = experiment: microbe, parasite or virus in culture; type: cell-based
Experimental: as §2

[17] = test system: Enterococcus faecalis (ATCC51299); experiment: microbe, parasite or virus in culture; type: cell-based; details: for BROTH DILUTION MIC: ATCC51299
Experimental: as §2

[18] = test system: Enterococcus faecium (F4641); experiment: microbe, parasite or virus in culture; type: cell-based; details: for BROTH DILUTION MIC: F4641
Experimental: as §2

Pseudomonas aeruginosa [19] = type: cell-based; remark: listed apart in the source
Experimental: as §2

[20] = Enterococcus faecium, read-out: BROTH DILUTION MIC

## CC(C)C[C@@H]1NC(=O)[C@H](CCCN)NC(=O)[C@H](C(C)C)NC(=O)[C@H](Cc2c[nH]c3ccccc23)NC(=O)[C@H](CC(=O)O)NC(=O)[C@H](CC(N)=O)NC(=O)[C@@H](Cc2ccccc2)NC(=O)[C@H](Cc2ccccc2)NC(=O)[C@@H]2CCCN2C(=O)[C@@H](Cc2ccc(O)cc2)NC1=O [Loloatin B, cyclo [L-Val-L-Orn-L-Leu-D-Tyr-L-Pro-L-Phe-D-Phe-L-Asn-L-Asp-L-Trp]] (cyclo(V[Orn]L[dY]PF[dF]NDW))
[1]
  biological activity of HPLC fraction (in words): exhibited the desired biological activity
S. aureus (MRSA)
  BROTH DILUTION MIC: 2 to 4 µg/mL
MRSA 034
  MBZ: 8.0
  MIC: 8.0
[2]
  BROTH DILUTION MIC: >100 µg/mL
[3]
  BROTH DILUTION MIC: <0.25 µg/mL
Escherichia coli [4]
  BROTH DILUTION MIC: >100 µg/mL
Candida albicans [5]
  BROTH DILUTION MIC: 16 µg/mL
[6]
  BROTH DILUTION MIC: <1 µg/mL
Enterobacter cloacae [7]
  BROTH DILUTION MIC: >100 µg/mL
P.a. 028
  MBZ: >128
  MIC: >128
[8]
  Minimum Inhibitory Concentration: <2 µg/mL
[9]
  Minimum Inhibitory Concentration: <2 µg/mL
Escherichia coli [10]
  Minimum Inhibitory Concentration: >100 µg/mL
[11]
  Minimum Inhibitory Concentration: <2 µg/mL
Candida albicans [12]
  Minimum Inhibitory Concentration: >100 µg/mL
Xanthomonas maltophilia
  Minimum Inhibitory Concentration: >100 µg/mL
Pseudomonas aeruginosa [13]
  Minimum Inhibitory Concentration: >100 µg/mL
Enterobacter cloacae [14]
  Minimum Inhibitory Concentration: >100 µg/mL
[15]
  BROTH DILUTION MIC: 2 to 4 µg/mL
[16]
  BROTH DILUTION MIC: 2 to 4 µg/mL
Enterococcus gallinarum
  BROTH DILUTION MIC: 2 to 4 µg/mL
[17]
  BROTH DILUTION MIC: 2 to 4 µg/mL
[18]
  BROTH DILUTION MIC: 2 to 4 µg/mL

## CC(C)C[C@@H]1NC(=O)[C@H](CCCN)NC(=O)[C@H](C(C)C)NC(=O)[C@H](Cc2c[nH]c3ccccc23)NC(=O)[C@H](CC(=O)O)NC(=O)[C@H](CC(N)=O)NC(=O)[C@@H](Cc2ccccc2)NC(=O)[C@H](Cc2c[nH]c3ccccc23)NC(=O)[C@@H]2CCCN2C(=O)[C@@H](Cc2ccc(O)cc2)NC1=O [Loloatin C, cyclo [L-Val-L-Orn-L-Leu-D-Tyr-L-Pro-L-Trp-D-Phe-L-Asn-L-Asp-L-Trp]] (cyclo(DWV[Orn]L[dY]PW[dF]N))
S. aureus (MRSA)
  BROTH DILUTION MIC: 0.5 to 1 µg/mL
[2]
  BROTH DILUTION MIC: >100 µg/mL
[3]
  BROTH DILUTION MIC: <0.25 µg/mL
Escherichia coli [4]
  BROTH DILUTION MIC: 1 to 2 µg/mL
Escherichia coli [4]; Escherichia coli, a gram negative rod bacteria, comment on Table 3
  activity against Escherichia coli (in words): excellent activity
Candida albicans [5]
  BROTH DILUTION MIC: 16 µg/mL
[6]
  BROTH DILUTION MIC: <0.25 µg/mL
Pseudomonas aeruginosa [19]
  BROTH DILUTION MIC: >100 µg/mL
Enterobacter cloacae [7]
  BROTH DILUTION MIC: >100 µg/mL
[15]
  BROTH DILUTION MIC: 1 to 2 µg/mL
[16]
  BROTH DILUTION MIC: 2 µg/mL
Enterococcus gallinarum
  BROTH DILUTION MIC: 1 to 2 µg/mL
[17]
  BROTH DILUTION MIC: 2 to 4 µg/mL
[18]
  BROTH DILUTION MIC: 2 µg/mL

## CC(C)C[C@@H]1NC(=O)[C@H](CCCN)NC(=O)[C@H](C(C)C)NC(=O)[C@H](Cc2ccc(O)cc2)NC(=O)[C@H](CC(=O)O)NC(=O)[C@H](CC(N)=O)NC(=O)[C@@H](Cc2ccccc2)NC(=O)[C@H](Cc2ccccc2)NC(=O)[C@@H]2CCCN2C(=O)[C@@H](Cc2ccc(O)cc2)NC1=O [Loloatin A, cyclo[L-Val-L-Orn-L-Leu-D-Tyr-L-Pro-L-Phe-D-Phe-L-Asn-L-Asp-L-Tyr]] (cyclo(DYV[Orn]L[dY]PF[dF]N))
S. aureus (MRSA)
  BROTH DILUTION MIC: 2 to 4 µg/mL
[2]
  BROTH DILUTION MIC: >100 µg/mL
[3]
  BROTH DILUTION MIC: <0.25 µg/mL
Escherichia coli [4]
  BROTH DILUTION MIC: >100 µg/mL
Candida albicans [5]
  BROTH DILUTION MIC: 16 µg/mL
[6]
  BROTH DILUTION MIC: <1 µg/mL
Pseudomonas aeruginosa [19]
  BROTH DILUTION MIC: >100 µg/mL
Enterobacter cloacae [7]
  BROTH DILUTION MIC: >100 µg/mL
[15]
  BROTH DILUTION MIC: 2 to 4 µg/mL
[16]
  BROTH DILUTION MIC: 2 to 4 µg/mL
Enterococcus gallinarum
  BROTH DILUTION MIC: 2 to 4 µg/mL
[17]
  BROTH DILUTION MIC: 2 to 4 µg/mL
[18]
  BROTH DILUTION MIC: 2 to 4 µg/mL

## CN[C@H](CC(C)C)C(=O)N[C@H]1C(=O)N[C@@H](CC(N)=O)C(=O)N[C@H]2C(=O)N[C@H]3C(=O)N[C@H](C(=O)N[C@H](C(=O)O)c4cc(O)cc(O)c4-c4cc3ccc4O)[C@H](O)c3ccc(c(Cl)c3)Oc3cc2cc(c3O[C@@H]2O[C@H](CO)[C@@H](O)[C@H](O)[C@H]2O[C@H]2C[C@](C)(N)[C@H](O)[C@H](C)O2)Oc2ccc(cc2Cl)[C@H]1O [Vancomycin, vancomycin, reference compound]
[15]; Enterococcus faecalis, read-out: BROTH DILUTION MIC
  MIC: > 100 µg/mL
[16]; [20]
  MIC: > 100 µg/mL
Enterococcus gallinarum; Enterococcus gallinarum, GALLINARUM, read-out: BROTH DILUTION MIC
  MIC: 6 µg/mL (≈ 4.14 µM)
[17]; Enterococcus faecalis, ATCC51299, read-out: BROTH DILUTION MIC
  MIC: 20 µg/mL (≈ 13.8 µM)
[18]; [20]
  MIC: 6 µg/mL (≈ 4.14 µM)
